Measured values as given in patent US7060712B2, “Crystalline form of aryl aniline β2 adrenergic receptor agonist” (Theravance, Inc., priority 2003, dated 2006).

Assay: Solid state stability testing on storage
Format: physicochemical
Experimental: Samples (20 and 80 mg each) of the Form A material produced by the process of Example 7 were stored at 25° C. and 60% relative humidity and at 40° C. and 75% relative humidity in open containers and in closed containers.
X-ray powder diffraction patterns were obtained with a Shimadzu 6000 diffractometer using Cu Kα (40.0 kV, 35.0 mA) radiation. The analysis was performed with the goniometer running in continuous-scan mode of 2°/min with a step size of 0.020 over a range of 4 to 45°. Samples were prepared on glass specimen holders as a thin layer of powdered material. The instruments was calibrated to a silicon metal standard.
Differential scanning calorimetry traces were obtained with a TA instruments model DSCQ10. Samples were placed in sealed aluminum pans for analysis with an empty pan serving as the reference. Samples were equilibrated at 30° C. and heated at 5° C. per minute to a temperature of 300° C. The instrument was calibrated with an indium standard.
Thermogravimetric analysis was conducted using a TA instruments model Q50. Samples were weighed in aluminum pans and heated from 30° C. to 300° C. at a rate of 5° C./min.
HPLC analysis was performed using reverse phase conditions and a gradient of 2% to 90% acetonitrile over 6 minutes. Solvents contain 0.1% trifluoroacetic acid. Column: Zorbax 2.1×50 mm, flow rate 0.5 mL/min, observed wavelength 214 nm.

[1] = solid stored four weeks at 25° C. and 60% relative humidity in closed containers

Which “stability upon storage (HPLC degradant peaks; DSC, TGA and XRPD traces)” value (four weeks at 25° C. and 60% humidity in closed containers) does the source give for `COc1ccc(Nc2ccc(CCNC[C@H](O)c3ccc(O)c4[nH]c(=O)ccc34)cc2)cc1-c1ccccc1.Cl` [Form A, N-{2-[4-(3-phenyl-4-methoxyphenyl)aminophenyl]ethyl}-(R)-2-hydroxy-2-(8-hydroxy-2(1H)-quinolinon-5-yl)ethylamine monohydrochloride water/isopropanol solvate] here?
The value was “stable”.

What about the “changes in analysis by DSC and TGA” value [1] of the same molecule?
The value was “no detectable differences”.

And the “chemical degradation, analysis by HPLC” value [1]?
Its value is “no detectable chemical degradation”.

What about the “solvent content on storage in open containers” value (solid stored in open containers over four weeks (25° C./60% RH and 40° C./75% RH)) of the same molecule?
Its value is “loss of isopropanol”.
